Measured values as given in patent US11690824B2, “Antibacterial compounds” (THE GENERAL HOSPITAL CORPORATION, priority 2018, dated 2023).
Converted amounts (≈) assume the structure as drawn. Like-named read-outs stand apart in the source and are kept apart here. Values belong to the compound of their own block, whether it stands above or below them.

Experiments:
S. aureus (MRSA) MW2 = experiment: Minimal inhibitory concentration (MIC) assay, micro-dilution; assay type: cell-based; conditions: for antibiotic activity / potency relative to nTZDpa: growing S. aureus cells
Description: (§1) Bacterial strains, growth conditions, and persister isolation. Methicillin-resistant S. aureus strains, MW2 BAA-1707, ATCC 33591, and JE2, methicillin-susceptible S. aureus strains, NCTC 8325, Newman, and ATCC 29213, vancomycin-resistant S. aureus strain, VRS1, Enterococcus faecium E007, vancomycin-resistant E. faecium strains, C68,^7 WB312, and WC196, Klebsiella pneumoniae WGLW2 (BEI Resources, Manassas, Va., USA), Acinetobacter baumannii ATCC 17978, Pseudomonas aeruginosa PA14, and Enterobacter aerogenes ATCC 13048 were used to test antimicrobial activity (Table 1). S. aureus strains were grown in tryptic soy broth (TSB) (BD, Franklin Lakes, N.J., USA), and E. faecium was grown in brain-heart infusion (BHI) broth (BD, Franklin Lakes, N.J., USA) at 37° C. K. pneumoniae, A. baumannii, P. aeruginosa, and E. aerogenes were grown in Luria Bertani (LB) broth (BD, Franklin Lakes, N.J., USA) at 37° C.
(§2) Minimal inhibitory concentration (MIC) assay. The MICS of antibiotics were determined by the standard micro-dilution method recommended by the Clinical and Laboratory Standards Institute. MIC assays were conducted in biological triplicate.

human erythrocytes = experiment: Human blood hemolysis; assay type: cell-based; conditions: human erythrocytes
Protocol: Human blood hemolysis. Hemolytic activity was evaluated as described in a previous study. Briefly, 100 μL of 4% human erythrocytes (Rockland Immunochemicals, Limerick, Pa., USA) was added to 100 μL of 2-fold serial dilutions of compounds in PBS, 0.2% DMSO (negative control), or 2% Triton-X 100 (positive control) in a 96-well plate. The 96-well plate was incubated at 37° C. for 1 h and then centrifuged at 500× g for 5 min. 50 μL of the supernatant was transferred to a fresh 96-well plate, and absorbance of supernatants was measured at 540 nm. Percent hemolysis was calculated using the following equation: (A540 nm of compound treated sample−A540 nm of 0.1% DMSO treated sample)/(A540 nm of 1% Triton X-100 treated sample−A540 nm of 0.1% DMSO treated sample)×100. HC50 (concentration of a compound causing 50% hemolysis) was determined using SigmaPlot 10.0 (Systat Software Inc., San Jose, Calif., USA).

MRSA MW2 = experiment: Antibiotic synergy test (checkerboard); assay type: cell-based, S. aureus; conditions: nTZDpa in combination with the named antibiotic, synergy if FICI ≤ 0.5
Protocol: Antibiotic synergy test. Antibiotic synergism was evaluated by the checkerboard method. Briefly, 2-fold serial dilutions of nTZDpa were combined with 2-fold serial dilutions of each other antibiotic, which created an 8×8 matrix in a 96-well microtiter plate. The fractional inhibitory concentration index (FICI) was calculated as follows: FICI=MIC of compound A in combination/MIC of compound A alone+MIC of compound B in combination/MIC of compound B alone. The interaction between two compounds was defined, as follows: synergy if FICI≤0.5, no interaction if 0.5<FICI≤4, and antagonism if FICI>4.

[1] = tested on: MRSA MW2 persisters (stationary phase); experiment: Persister killing assay; assay type: cell-based, S. aureus; conditions: 64 μg/mL
Protocol: Persister killing assay. […] Persister cells of MRSA MW2 were prepared by growing cultures overnight to stationary phase at 37° C. at 200 rpm and washing 3 times with PBS. 1 mL of ˜2×10^8 CFU/mL MRSA persisters was added to 1 mL of PBS containing 2-fold of the desired concentration of antibiotics in a 96-well assay block (Corning Costar 3960). The assay block was incubated at 37° C., with shaking at 200 rpm. At specific times, […] were removed, washed once with PBS, serially diluted and spot-plated on TSA plates. Colonies were counted to enumerate the number of live cells after overnight incubation at 37° C. These experiments were conducted in biological triplicate.

S. aureus JE2 = experiment: MIC assay; assay type: cell-based; conditions: S. aureus JE2
Description: as §1, §2

S. aureus VRS1 = experiment: MIC assay; assay type: cell-based; conditions: S. aureus VRS1
Description: as §1, §2

S. aureus ATCC 33591 = experiment: MIC assay; assay type: cell-based; conditions: S. aureus ATCC 33591
Description: as §1, §2

S. aureus NCTC 8325 = experiment: MIC assay; assay type: cell-based; conditions: S. aureus NCTC 8325
Description: as §1, §2

S. aureus Newman = experiment: MIC assay; assay type: cell-based; conditions: S. aureus Newman
Description: as §1, §2

S. aureus ATCC 29213 = experiment: MIC assay; assay type: cell-based; conditions: S. aureus ATCC 29213
Description: as §1, §2

E. aerogenes ATCC 13048 = experiment: MIC assay; assay type: cell-based, Enterobacter aerogenes; conditions: E. aerogenes ATCC 13048
Description: as §1, §2

A. baumannii ATCC 17978 = experiment: MIC assay; assay type: cell-based, Acinetobacter baumannii; conditions: A. baumannii ATCC 17978
Description: as §1, §2

P. aeruginosa PA14 = experiment: MIC assay; assay type: cell-based, Pseudomonas aeruginosa; conditions: P. aeruginosa PA14
Description: as §1, §2

E. faecium C68 = experiment: MIC assay; assay type: cell-based, Enterococcus faecium; conditions: E. faecium C68
Description: as §1, §2

E. faecium WB312 = experiment: MIC assay; assay type: cell-based, Enterococcus faecium; conditions: E. faecium WB312
Description: as §1, §2

E. faecium WC196 = experiment: MIC assay; assay type: cell-based, Enterococcus faecium; conditions: E. faecium WC196
Description: as §1, §2

E.faecium E007 = experiment: MIC assay; assay type: cell-based, Enterococcus faecium; conditions: E.faecium E007
Description: as §1, §2

K. pneumoniae WGLW2 = experiment: MIC assay; assay type: cell-based, Klebsiella pneumoniae; conditions: K. pneumoniae WGLW2
Description: as §1, §2

[2] = Staphylococcus aureus, Table 3, growing MRSA, read-out: MIC
[3] = Staphylococcus aureus, Example 5, MRSA MW2, read-out: MIC
[4] = Staphylococcus aureus, MRSA, PPARγ agonists, read-out: MICS against S. aureus MW2

SMILES: CO[C@H]1/C=C/O[C@@]2(C)Oc3c(C)c(O)c4c(O)c(c(/C=N/N5CCN(C)CC5)c(O)c4c3C2=O)NC(=O)/C(C)=C\C=C\[C@H](C)[C@H](O)[C@@H](C)[C@@H](O)[C@@H](C)[C@H](OC(C)=O)[C@@H]1C [Rifampicin, rifampicin]
FICI (fractional inhibitory concentration index) (MRSA MW2): 1

SMILES: NC[C@H]1O[C@H](O[C@H]2[C@H](O)[C@@H](O[C@H]3O[C@H](CO)[C@@H](O)[C@H](N)[C@H]3O)[C@H](N)C[C@@H]2N)[C@H](O)[C@@H](O)[C@@H]1O [Kanamycin, kanamysin]
FICI (fractional inhibitory concentration index) (MRSA MW2): 0.5

SMILES: CN(C)[C@@H]1C(O)=C(C(N)=O)C(=O)[C@@]2(O)C(O)=C3C(=O)c4c(O)cccc4[C@@](C)(O)[C@H]3C[C@@H]12 [Tetracycline, tetracycline]
FICI (fractional inhibitory concentration index) (MRSA MW2): 1.125

SMILES: OCc1c(Oc2ccccc2)c2cc(Cl)ccc2n1Cc1ccc(Cl)cc1 [Compound S13, (5-chloro-1-(4-chlorobenzyl)-3-phenoxy-1H-indol-2-yl)methanol]
antibiotic activity / potency relative to nTZDpa (S. aureus (MRSA) MW2): reduction of antibiotic activity

SMILES: Cc1onc(-c2ccccc2)c1C(=O)N[C@@H]1C(=O)N2[C@@H]1SC(C)(C)[C@@H]2C(=O)O [Oxa, oxacillin]
Minimum inhibitory concentration (S. aureus JE2): 64 µg/mL (≈ 159 µM)
Minimum inhibitory concentration (S. aureus VRS1): >64 µg/mL
Minimum inhibitory concentration (S. aureus ATCC 33591): >64 µg/mL
Minimum inhibitory concentration (S. aureus NCTC 8325): 0.5 µg/mL (≈ 1.25 µM)
Minimum inhibitory concentration (S. aureus Newman): 0.5 µg/mL (≈ 1.25 µM)
Minimum inhibitory concentration (S. aureus ATCC 29213): 0.5 µg/mL (≈ 1.25 µM)
Minimum inhibitory concentration (E. aerogenes ATCC 13048): >64 µg/mL
Minimum inhibitory concentration (A. baumannii ATCC 17978): >64 µg/mL
Minimum inhibitory concentration (S. aureus (MRSA) MW2; S. aureus (MRSA) MW2): 64 µg/mL (≈ 159 µM)
Minimum inhibitory concentration (P. aeruginosa PA14): >64 µg/mL
Minimum inhibitory concentration (E. faecium C68): >64 µg/mL
Minimum inhibitory concentration (E. faecium WB312): >64 µg/mL
Minimum inhibitory concentration (E. faecium WC196): >64 µg/mL
Minimum inhibitory concentration (E.faecium E007): >64 µg/mL
Minimum inhibitory concentration (K. pneumoniae WGLW2): >64 µg/mL

SMILES: O=C(O)c1c(Sc2ccc(Cl)cc2)c2cc(Cl)ccc2n1Cc1ccc(Cl)cc1 [Compound 4, 5-chloro-1-(4-chlorobenzyl)-3-((4-chlorophenyl)thio)-1H-indole-2-carboxylic acid]
MIC (S. aureus (MRSA) MW2; [2]): 2 µg/mL (≈ 4.32 µM)
HC50: median hemolytic concentration (human erythrocytes): 34 µg/mL

SMILES: NC[C@H]1O[C@H](O[C@H]2[C@H](O)[C@@H](O[C@H]3O[C@H](CO)[C@@H](O)[C@H](N)[C@H]3O)[C@H](N)C[C@@H]2N)[C@H](N)C[C@@H]1O [Tobramycin, tobaramysin]
FICI (fractional inhibitory concentration index) (MRSA MW2): 0.31

SMILES: O=C(O)c1c(Sc2ccccc2)c2cc(Cl)ccc2n1Cc1cccc(Cl)c1 [Analog 2b, 5-chloro-1-(3-chlorobenzyl)-3-(phenylthio)-1H-indole-2-carboxylic acid]
MIC (S. aureus (MRSA) MW2; Example 5, MRSA MW2): same MIC

SMILES: O=C(O)c1c(Cc2ccccc2)c2cc(Cl)ccc2n1Cc1ccc(Cl)cc1 [Compound S12, 3-benzyl-5-chloro-1-(4-chlorobenzyl)-1H-indole-2-carboxylic acid]
antibiotic activity / potency relative to nTZDpa (S. aureus (MRSA) MW2): less potency

SMILES: Cn1c(C(=O)O)c(Sc2ccccc2)c2cc(Cl)ccc21 [Analog 5, 5-chloro-1-methyl-3-(phenylthio)-1H-indole-2-carboxylic acid]
MIC (S. aureus (MRSA) MW2; [3]): 64 µg/mL (≈ 201 µM)

SMILES: [H]/N=C(/N)N[C@H]1[C@H](O)[C@@H](O)[C@H](O[C@@H]2O[C@@H](C)[C@](O)(C=O)[C@H]2O[C@@H]2O[C@@H](CO)[C@H](O)[C@@H](O)[C@@H]2NC)[C@@H](N/C(N)=N\[H])[C@@H]1O [Streptomycin, streptomycin]
FICI (fractional inhibitory concentration index) (MRSA MW2): 0.37

The next lines start with results.

MIC (S. aureus (MRSA) MW2; [2]): 2 µg/mL (≈ 4.07 µM)
SMILES: O=C(O)c1c(Oc2ccc(Br)cc2)c2cc(Cl)ccc2n1Cc1ccc(Cl)cc1 [Compound 13, 3-(4-bromophenoxy)-5-chloro-1-(4-chlorobenzyl)-1H-indole-2-carboxylic acid]
HC50: median hemolytic concentration (human erythrocytes): >64 µg/mL

MIC (S. aureus (MRSA) MW2; [2]): 2 µg/mL (≈ 4.13 µM)
SMILES: CC(C)(C)c1ccc(Sc2c(C(=O)O)n(Cc3ccc(Cl)cc3)c3ccc(Cl)cc23)cc1 [Compound 5, 3-((4-(tert-butyl)phenyl)thio)-5-chloro-1-(4-chlorobenzyl)-1H-indole-2-carboxylic acid]
HC50: median hemolytic concentration (human erythrocytes): 26 µg/mL

MIC (S. aureus (MRSA) MW2; [2]): 2 µg/mL (≈ 4.48 µM)
SMILES: O=C(O)c1c(Oc2ccc(Cl)cc2)c2cc(Cl)ccc2n1Cc1ccc(Cl)cc1 [Compound 11, 5-chloro-1-(4-chlorobenzyl)-3-(4-chlorophenoxy)-1H-indole-2-carboxylic acid]
HC50: median hemolytic concentration (human erythrocytes): >64 µg/mL

MIC (S. aureus (MRSA) MW2; [2]): 2 µg/mL (≈ 4.48 µM)
SMILES: O=C(O)c1c(Oc2ccccc2)c2cc(Cl)ccc2n1Cc1ccc(Cl)c(Cl)c1 [Compound 10, 5-chloro-1-(3,4-dichlorobenzyl)-3-phenoxy-1H-indole-2-carboxylic acid]
HC50: median hemolytic concentration (human erythrocytes): >64 µg/mL

MIC (S. aureus (MRSA) MW2; [3]): 16 µg/mL (≈ 40.6 µM)
SMILES: O=C(O)c1c(Sc2ccccc2)c2cc(Cl)ccc2n1Cc1ccccc1 [S4 (analog 2), 1-benzyl-5-chloro-3-(phenylthio)-1H-indole-2-carboxylic acid]

MIC (S. aureus (MRSA) MW2; [4]): > 64 µg/mL
SMILES: CN(CCOc1ccc(CC2SC(=O)NC2=O)cc1)c1ccccn1 (stereo not drawn) [rosiglitazone, reference compound]

MIC (S. aureus (MRSA) MW2; [2]): 4 µg/mL (≈ 9.7 µM)
SMILES: O=C(O)c1c(Oc2ccccc2)c2cc(Cl)ccc2n1Cc1ccc(Cl)cc1 [Compound 6, 5-chloro-1-(4-chlorobenzyl)-3-phenoxy-1H-indole-2-carboxylic acid]
antibiotic activity / potency relative to nTZDpa (S. aureus (MRSA) MW2): equipotent with nTZDpa
HC50: median hemolytic concentration (human erythrocytes): >64 µg/mL
decrease in viability of persisters [1]: 3 log

MIC (S. aureus (MRSA) MW2; [4]): > 64 µg/mL
SMILES: CCc1ccc(CCOc2ccc(CC3SC(=O)NC3=O)cc2)nc1 (stereo not drawn) [pioglitazone, reference compound]

MIC (S. aureus (MRSA) MW2; [2]): 1 µg/mL (≈ 1.86 µM)
SMILES: O=C(O)c1c(Oc2ccc(I)cc2)c2cc(Cl)ccc2n1Cc1ccc(Cl)cc1 [Compound 14, 5-chloro-1-(4-chlorobenzyl)-3-(4-iodophenoxy)-1H-indole-2-carboxylic acid]
HC50: median hemolytic concentration (human erythrocytes): >64 µg/mL

MIC (S. aureus (MRSA) MW2; [2]): 1 µg/mL (≈ 2.08 µM)
SMILES: O=C(O)c1c(Oc2ccc(Cl)c(Cl)c2)c2cc(Cl)ccc2n1Cc1ccc(Cl)cc1 [Compound 12, 5-chloro-1-(4-chlorobenzyl)-3-(3,4-dichlorophenoxy)-1H-indole-2-carboxylic acid]
HC50: median hemolytic concentration (human erythrocytes): 38 µg/mL
